{
  "source": "patent US4585756A",
  "about": "“Bovine GRF” (The Salk Institute for Biological Studies, priority 1983, dated 1986)",
  "system": "rat pituitary cells",
  "experiment": "in vitro release of growth hormone (ir GH by radioimmunoassay) from cultured rat pituitary cells, side-by-side with hGRF(1-44)-NH2",
  "type": "cell-based",
  "method": "To determine the effectiveness of the peptide to promote the release of growth hormone, in vitro assays are carried out using synthetic hGRF(1-44)-NH2 in side-by-side comparison with equimolar concentrations of the extracted and purified bGRF(1-44) of Example II. hGRF thus serves as a GRF Reference Standard having a known effectiveness to promote the release of growth hormone from rat pituitary cells. Cultures are used which include cells of rat pituitary glands removed some four to five days previously. Both cultures of a defined standard medium and cultures which are considered optimal for the secretion of growth hormone are used for the comparative testing, in the general manner described in Brazeau, et al. Regulatory Peptides, 1, 255, 1981. Incubation with the substance to be tested is carried out for 3 to 4 hours, and aliquots of the culture medium are removed and processed to measure their contents in immunoreactive GH(ir GH) by a well-characterized radioimmunoassay.",
  "key": {"[1]": {"details": "equimolar ratios, rat pituitary cell cultures, incubation 3 to 4 hours"}},
  "data": [
    {"molecule": "CC[C@H](C)[C@H](NC(=O)[C@H](C)NC(=O)[C@H](CC(=O)O)NC(=O)[C@H](C)NC(=O)[C@@H](N)Cc1ccc(O)cc1)C(=O)N[C@@H](Cc1ccccc1)C(=O)N[C@H](C(=O)N[C@@H](CC(N)=O)C(=O)N[C@@H](CO)C(=O)N[C@@H](Cc1ccc(O)cc1)C(=O)N[C@@H](CCCNC(=N)N)C(=O)N[C@@H](CCCCN)C(=O)N[C@H](C(=O)N[C@@H](CC(C)C)C(=O)NCC(=O)N[C@@H](CCC(N)=O)C(=O)N[C@@H](CC(C)C)C(=O)N[C@@H](CO)C(=O)N[C@@H](C)C(=O)N[C@@H](CCCNC(=N)N)C(=O)N[C@@H](CCCCN)C(=O)N[C@@H](CC(C)C)C(=O)N[C@@H](CC(C)C)C(=O)N[C@@H](CCC(N)=O)C(=O)N[C@@H](CC(=O)O)C(=O)N[C@H](C(=O)N[C@@H](CCSC)C(=O)N[C@@H](CC(N)=O)C(=O)N[C@@H](CCCNC(=N)N)C(=O)N[C@@H](CCC(N)=O)C(=O)N[C@@H](CCC(N)=O)C(=O)NCC(=O)N[C@@H](CCC(=O)O)C(=O)N[C@@H](CCCNC(=N)N)C(=O)N[C@@H](CC(N)=O)C(=O)N[C@@H](CCC(N)=O)C(=O)N[C@@H](CCC(=O)O)C(=O)N[C@@H](CCC(N)=O)C(=O)NCC(=O)N[C@@H](C)C(=O)N[C@@H](CCCCN)C(=O)N[C@H](C(=O)N[C@@H](CCCNC(=N)N)C(=O)N[C@@H](CC(C)C)C(N)=O)C(C)C)[C@@H](C)CC)C(C)C)[C@@H](C)O", "note": "[bGRF(1-44)]", "values": [
      {"measurement": "intrinsic biological activity (GH release) compared with synthetic hGRF(1-44)-NH2", "setting": "[1]", "result": "full intrinsic biological activity"},
      {"measurement": "potency (GH release) compared with synthetic hGRF(1-44)-NH2", "setting": "[1]", "result": "close to the same potency"},
      {"measurement": "intrinsic activity relative to hGRF(1-44)-NH2", "setting": "multiple doses factorial design experiments", "result": "same intrinsic activity"},
      {"measurement": "specific activity relative to hGRF(1-44)-NH2", "setting": "multiple doses factorial design experiments, % of hGRF(1-44)-NH2, confidence limits of 54-93%", "result": "about 70%"}
    ]}
  ]
}
